{"source": "patent US9580758B2", "about": "“System and method for the detection and treatment of infection by a microbial agent associated with HIV infection” (priority 2013, dated 2017)", "tested_on": "Rickettsiales-like agent", "format": "cell-based"}
{"compound": "O=C(N[C@H](CO)[C@H](O)c1ccc([N+](=O)[O-])cc1)C(Cl)Cl", "note": "[chloramphenicol]", "values": [{"measurement": "sensitivity of the 400 bp sequence (grown with the Rickettsiales-like agent) to treatment in vitro", "value": "sensitive"}]}
